Among the data in ChEMBL document CHEMBL1139973, “Synthesis and structure-activity relationships of taxuyunnanine C derivatives as multidrug resistance modulator in MDR cancer cells” (Bioorg Med Chem Lett, 2007) are IC50 and Activity values, retold here.

Where only a bound is given, the exact number is not on record here.

In data set [1] the test system is A2780. The data set is described as follows: Growth inhibition of human A2780 cells. The class given is functional, cell-based.
A short description of data set [2]: Growth inhibition of multidrug-resistant human 2780AD cells. The class given is functional, cell-based. Conditions: A2780 ADR.
For data set [3], the system named is HepG2. Nature of the data set: Growth inhibition of human HepG2 cells. It is filed as functional, cell-based.
Data set [4] deals with T1, ATP-dependent translocase ABCB1 (Homo sapiens, UniProt P08183). The data set is described as follows: Inhibition of Pgp in multidrug-resistant human 2780AD cells assessed as calcein accumulation at 2.5 ug/mL relative to control. It is filed as cell-based. Conditions: a2780 adr. More on the design: scale not given: the % may be the effect or the level left.
A short description of data set [5]: Growth inhibition of human WI38 cells. It is filed as cell-based. As to conditions: WI-38.
Data set [6] addresses T1, ATP-dependent translocase ABCB1. The data set is described as follows: Inhibition of Pgp in multidrug-resistant human 2780AD cells assessed as vincristine accumulation at 10 ug/mL relative to control. Conditions: a2780 adr. More on the design: scale not given: the % may be the effect or the level left. The class given is cell-based.
Data set [7] has the same target. Nature of the data set: Inhibition of Pgp in multidrug-resistant human 2780AD cells assessed as calcein accumulation at 0.25 ug/mL relative to control. The class given is cell-based. More on the design: scale not given: the % may be the effect or the level left. As to conditions: a2780 adr.
The target is the same in data set [8]. The data set is described as follows: Inhibition of Pgp in multidrug-resistant human 2780AD cells assessed as vincristine accumulation at 1.0 ug/mL relative to verapamil. It is filed as cell-based. As to conditions: a2780 adr. More on the design: scale not given: the % may be the effect or the level left.
For data set [9] the target is unchanged. Nature of the data set: Inhibition of Pgp in multidrug-resistant human 2780AD cells assessed as vincristine accumulation at 0.1 ug/mL relative to control. It is filed as cell-based. More on the design: scale not given: the % may be the effect or the level left. As to conditions: a2780 adr.
For data set [10] the target is unchanged. The data set is described as follows: Inhibition of Pgp in multidrug-resistant human 2780AD cells assessed as vincristine accumulation at 1.0 ug/mL relative to control. The class given is cell-based. Further details: scale not given: the % may be the effect or the level left. As to conditions: a2780 adr.
The target is the same in data set [11]. The data set is described as follows: Inhibition of Pgp in multidrug-resistant human 2780AD cells assessed as vincristine accumulation at 10 ug/mL relative to verapamil. The class given is cell-based. More on the design: scale not given: the % may be the effect or the level left. As to conditions: a2780 adr.
Data set [12] shares this target. The data set is described as follows: Inhibition of Pgp in multidrug-resistant human 2780AD cells assessed as calcein accumulation at 25 ug/mL relative to control. More on the design: scale not given: the % may be the effect or the level left. Conditions: a2780 adr. It is filed as cell-based.
For data set [13] the target is unchanged. The data set is described as follows: Inhibition of Pgp in multidrug-resistant human 2780AD cells assessed as vincristine accumulation at 0.1 ug/mL relative to verapamil. It is filed as cell-based. More on the design: scale not given: the % may be the effect or the level left. Conditions: a2780 adr.
For data set [14], the system named is WI-38 VA13. The data set is described as follows: Growth inhibition of human VA13 cells. The class given is functional, cell-based.

T1 sequence (P08183 whole entry): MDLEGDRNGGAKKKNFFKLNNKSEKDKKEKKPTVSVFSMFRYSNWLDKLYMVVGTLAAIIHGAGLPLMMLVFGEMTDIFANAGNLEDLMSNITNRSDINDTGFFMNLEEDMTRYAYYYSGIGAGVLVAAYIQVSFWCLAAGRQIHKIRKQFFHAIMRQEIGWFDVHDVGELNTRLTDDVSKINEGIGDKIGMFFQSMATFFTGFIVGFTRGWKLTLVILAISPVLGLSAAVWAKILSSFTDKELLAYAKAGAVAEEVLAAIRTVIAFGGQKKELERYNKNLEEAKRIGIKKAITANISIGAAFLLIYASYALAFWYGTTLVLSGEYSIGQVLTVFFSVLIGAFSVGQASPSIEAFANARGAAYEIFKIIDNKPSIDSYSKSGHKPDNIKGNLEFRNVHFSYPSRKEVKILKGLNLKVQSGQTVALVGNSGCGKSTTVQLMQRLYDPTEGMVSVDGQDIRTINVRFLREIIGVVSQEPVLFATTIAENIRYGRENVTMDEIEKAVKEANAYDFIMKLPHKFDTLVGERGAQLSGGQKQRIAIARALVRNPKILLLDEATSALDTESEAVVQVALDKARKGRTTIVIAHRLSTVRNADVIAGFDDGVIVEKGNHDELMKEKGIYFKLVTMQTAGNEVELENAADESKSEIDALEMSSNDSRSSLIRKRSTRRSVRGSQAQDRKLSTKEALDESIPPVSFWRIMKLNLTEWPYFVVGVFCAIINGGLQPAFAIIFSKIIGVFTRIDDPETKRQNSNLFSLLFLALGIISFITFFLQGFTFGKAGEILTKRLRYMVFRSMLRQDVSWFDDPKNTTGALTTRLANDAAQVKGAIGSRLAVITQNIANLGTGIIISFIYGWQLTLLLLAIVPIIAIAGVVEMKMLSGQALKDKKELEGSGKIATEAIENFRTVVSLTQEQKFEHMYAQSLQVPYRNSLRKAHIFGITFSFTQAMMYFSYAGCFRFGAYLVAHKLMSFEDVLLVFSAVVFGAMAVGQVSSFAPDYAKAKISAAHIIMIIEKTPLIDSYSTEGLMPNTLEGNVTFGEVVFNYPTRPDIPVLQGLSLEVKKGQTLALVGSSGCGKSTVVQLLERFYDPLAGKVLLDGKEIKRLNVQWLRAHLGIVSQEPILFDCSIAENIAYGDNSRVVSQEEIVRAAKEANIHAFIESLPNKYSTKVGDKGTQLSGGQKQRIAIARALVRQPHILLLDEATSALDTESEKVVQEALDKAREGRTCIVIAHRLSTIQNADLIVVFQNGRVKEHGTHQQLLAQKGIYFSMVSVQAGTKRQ

With `COc1cccc2c1C(=O)c1c(O)c3c(c(O)c1C2=O)C[C@@](O)(C(=O)CO)C[C@@H]3O[C@H]1C[C@H](N)[C@H](O)[C@H](C)O1` [DOXORUBICIN], the IC50 in [1] stood at 0.0057 µM; in [2], 0.298 µM.

`C=C1[C@@H](OC(C)=O)CC[C@@]2(C)C[C@H](OC(C)=O)C3=C(C)C[C@H](OC(=O)/C=C/c4ccccc4)[C@@H]([C@@H](OC(C)=O)[C@H]12)C3(C)C`: the results for the IC50 in [3], in [5] and in data set [14] were more than 169 µM, 154 µM and more than 169 µM, respectively. Further, the Activity in [4] is listed as 126%; in data set [6], 280%; in data set [7], 123%; in [8], 75%; in [9], 95%; in [10], 140%. Moreover, the Activity was 62% in data set [11], 125% in data set [12] and 87% in data set [13].

In the case of `C=C1[C@@H](OC(C)=O)CC[C@@]2(C)C[C@H](OC(=O)/C=C/c3ccccc3)C3=C(C)C[C@H](OC(=O)/C=C/c4ccccc4)[C@@H]([C@@H](OC(C)=O)[C@H]12)C3(C)C`, the IC50 in data set [3], in data set [5] and in data set [14] was more than 147 µM in each case. Moreover, the Activity in data set [4] is 80%; in data set [6] it was 122%; in data set [7] it was 83%; in data set [8] it was 49%; in data set [9] it was 91%; in data set [10], 92%. Also, the Activity was 27% in data set [11], 80% in [12] and 83% in data set [13].

Take `C=C1[C@@H](O)CC[C@@]2(C)C[C@H](OC(C)=O)C3=C(C)C[C@H](OC(C)=O)[C@@H]([C@@H](OC(C)=O)[C@H]12)C3(C)C`: the values for the IC50 in data set [3], in [5] and in data set [14] were 183 µM, 149 µM and 105 µM, respectively. Also, the values for the Activity in data set [4], in [7] and in data set [12] were 118%, 118% and 141%, respectively.

`C=C1[C@@H](OC(C)=O)CC[C@@]2(C)C[C@H](OC(=O)/C=C/c3ccccc3)C3=C(C)C[C@H](OC(C)=O)[C@@H]([C@@H](OC(C)=O)[C@H]12)C3(C)C`: the IC50 in data set [3] is 106 µM; in [5], more than 169 µM; in data set [14], more than 169 µM. The Activity in [4] is reported as 123%; in data set [6], 451%; in data set [7] it was 92%; in [8], 118%; in [9], 132%; in data set [10] it was 209%. Moreover, the results for the Activity in data set [11], in data set [12] and in data set [13] were 81%, 126% and 130%, respectively.

As for `C=C1[C@@H](OC(C)=O)CC[C@@]2(C)[C@@H](OC(=O)/C=C/c3ccccc3)[C@H](OC(C)=O)C3=C(C)C[C@H](OC(C)=O)[C@@H]([C@@H](OC(C)=O)[C@H]12)C3(C)C`, the IC50 in [3] was more than 154 µM; in data set [5], 151 µM; in data set [14] it was more than 154 µM. Besides, the Activity in data set [4] was 103%; in [7] it was 102%; in data set [12], 125%.

For `C=C1[C@@H](OC(C)=O)C[C@H](OC(=O)/C=C/c2ccccc2)[C@@]2(C)C[C@H](OC(C)=O)C3=C(C)C[C@H](OC(=O)C(C)CC)[C@@H]([C@@H](OC(C)=O)[C@H]12)C3(C)C` (some centres not stated), the IC50 in data set [3], in [5] and in [14] was more than 144 µM in each case. Also, the Activity is recorded as 98% in [4], 96% in [7] and 102% in [12].

As to `C=C1[C@@H](OC(C)=O)CC[C@@]2(C)[C@@H](O)[C@H](OC(C)=O)C3=C(C)C[C@H](OC(C)=O)[C@@H]([C@@H](OC(C)=O)[C@H]12)C3(C)C`, the 50% inhibitory concentration (IC50) in data set [3] is 128 µM; in data set [5], 129 µM; in data set [14] it was more than 192 µM. The Activity in data set [4] is given as 101%; in [6], 168%; in [7], 102%; in [8] it was 58%; in [9] it was 86%; in [10] it was 108%. Moreover, the Activity in [11] is given as 37%; in data set [12], 110%; in [13] it was 79%.

In the case of `C=C1[C@@H](OC(C)=O)CC[C@@]2(C)C[C@H](OC(C)=O)C3=C(C)CC[C@@H]([C@@H](OC(C)=O)[C@H]12)C3(C)C`, the IC50 is 10.3 µM in [3], 8.93 µM in [5] and 12.2 µM in data set [14]. Besides, the Activity in [4] is reported as 105%; in data set [7] it was 89%; in data set [12] it was 91%.

Turning to `CC[C@]1(O)C[C@H]2CN(CCc3c([nH]c4ccccc34)[C@@](C(=O)OC)(c3cc4c(cc3OC)N(C=O)[C@H]3[C@@](O)(C(=O)OC)[C@H](OC(C)=O)[C@]5(CC)C=CCN6CC[C@]43[C@@H]65)C2)C1` [VINCRISTINE], the IC50 stood at 0.0031 µM in [1] and 0.311 µM in [2].

For the compound `C=C1[C@@H](OC(C)=O)CC[C@@]2(C)C[C@H](O)C3=C(C)C[C@H](OC(C)=O)[C@@H]([C@@H](OC(C)=O)[C@H]12)C3(C)C`, the IC50 in data set [3] worked out at 108 µM; in data set [5] it was 105 µM; in data set [14] it was 12.6 µM. The Activity in data set [4] is reported as 98%; in [6] it was 229%; in [7] it was 103%; in data set [8] it was 64%; in data set [9], 92%; in data set [10] it was 119%. In addition, the results for the Activity in data set [11], in [12] and in data set [13] were 51%, 111% and 84%, respectively.

For `C=C1[C@@H](OC(C)=O)C[C@H](O)[C@@]2(C)C[C@H](OC(C)=O)C3=C(C)C[C@H](OC(=O)C(C)CC)[C@@H]([C@@H](OC(C)=O)[C@H]12)C3(C)C` (some centres not stated), the IC50 worked out at 75.2 µM in data set [3], 81.6 µM in [5] and 79.1 µM in data set [14]. The results for the Activity in data set [4], in [7] and in data set [12] were 98%, 94% and 110%, respectively.

On to `C=C1[C@@H](OC(C)=O)CC[C@@]2(C)C[C@H](OC(C)=O)C3=C(C)C[C@H](OC(C)=O)[C@@H]([C@@H](O)[C@H]12)C3(C)C`, for which the IC50 was found to be 122 µM in [3], 130 µM in data set [5] and 104 µM in data set [14]. For the same compound, the Activity in data set [4] is given as 99%; in [6] it was 259%; in data set [7] it was 99%; in [8], 84%; in [9], 101%; in data set [10], 144%. Also, the Activity in [11] is given as 74%; in data set [12], 111%; in data set [13], 89%.

Regarding `C=C1[C@@H](OC(C)=O)CC[C@@]2(C)C[C@H](OC(C)=O)C3=C(C)C[C@H](OC(=O)C(C)C(C)O)[C@@H]([C@@H](OC(C)=O)[C@H]12)C3(C)C` (some centres not stated) [YUNNANXANE], the values for the IC50 in data set [3], in data set [5] and in data set [14] were 18.5 µM, 79.4 µM and 9.29 µM, respectively. Moreover, the Activity in data set [4] was 94%; in data set [7], 81%; in [12], 168%.

In data set [2], `CC(=O)O[C@H]1C(=O)[C@@]2(C)[C@H]([C@H](OC(=O)c3ccccc3)[C@]3(O)C[C@H](OC(=O)[C@H](O)[C@@H](NC(=O)c4ccccc4)c4ccccc4)C(C)=C1C3(C)C)[C@]1(OC(C)=O)CO[C@@H]1C[C@@H]2O` [PACLITAXEL] returned an IC50 of 183 µM.

On to `C=C1[C@@H](OC(C)=O)CC[C@@]2(C)C[C@H](OC(=O)/C=C/c3ccccc3)C3=C(C)C[C@H](O)[C@@H]([C@@H](OC(C)=O)[C@H]12)C3(C)C`, for which the IC50 in data set [3] was determined as 15.3 µM; in data set [5], 71.7 µM; in data set [14], 11.5 µM. Further, the Activity was 113% in data set [4]; 497% in [6]; 109% in data set [7]; 102% in [8]; 114% in [9]; 190% in data set [10]. The figures for the Activity in data set [11], in [12] and in data set [13] were 110%, 113% and 105%, respectively.

With `C=C1[C@@H](OC(C)=O)CC[C@@]2(C)C[C@H](OC(C)=O)C3=C(C)C[C@H](OC(=O)c4ccccc4)[C@@H]([C@@H](OC(C)=O)[C@H]12)C3(C)C`, the IC50 in data set [3] is 144 µM; in data set [5], more than 176 µM; in data set [14], more than 176 µM. Besides, the Activity is listed as 107% in data set [4], 90% in data set [7] and 133% in data set [12].

For the compound `C=C1[C@@H](OC(C)=O)CC[C@@]2(C)C[C@H](OC(C)=O)C3=C(C)C[C@H](OC(C)=O)[C@@H]([C@@H](OC(C)=O)[C@H]12)C3(C)C` [TAXUYUNNANINE C], the IC50 in data set [3] was 18.5 µM; in data set [5] it was 130 µM; in data set [14], 53.1 µM. The Activity in data set [4] was 141%; in [7], 130%; in data set [12], 127%.

By IC50 is commonly meant the midpoint of a concentration-inhibition curve.
